Measurements reported in US20250270206A1, “COMPOSITIONS AND METHODS FOR INHIBITION OF RAS” (TheRas, Inc., priority 2022, published 2025).

How the values were obtained:
[1] = biological target: T1, GppNHp-loaded KRAS4b (amino acids 1-169) G12C/C118S (Homo sapiens, UniProt P01116, C118S/G12C); assay: MALDI-TOF MS covalent Cys12 modification, GppNHp-loaded KRAS G12C; assay type: binding; details: 15 minutes reaction time, 1 μM protein, 1:2.5 protein to compound ratio
T1 construct: KRAS4b (amino acids 1-169) G12C/C118S protein; made in house
Description: (§1) MALDI-TOF MS analysis was performed using 1 μM protein target, and 1:2.5 protein to compound ratio was used.
(§2) Reaction: 1 μM of GppNHp, GTP, or GDP-loaded KRAS4b (amino acids 1-169) G12C/C118S protein (produced in-house by Protein Expression Laboratory, FNLCR/Leidos Biomed) in 20 mM 4-(2-hydroxyethyl)-1-piperazineethanesulfonic acid (HEPES) buffer containing 150 mM NaCl, 1 mM MgCl2, pH 7.3 was prepared freshly before assay. Ten-μL aliquots of protein were dispensed onto low volume 384-well plate, then 375 nL DMSO, and 25 nL of tested compounds from 5 mM DMSO stocks were added to appropriate wells using ECHO 555 acoustic liquid handler (Labcyte Inc.). For each reaction/assay, three blanks were prepared by mixing 10 μL of protein solution with 400 nL DMSO. The contents of the wells were carefully mixed by aspiration, and then each plate was sealed with an adhesive cover, centrifuged at 2000 g for 1 minute, and kept in the dark at room temperature until 5 min, 15 min, 30 min, 2 h, or 6 h collections.
(§3) Target pretreatment: Before each assay MALDI target (Bruker MPT 384 ground steel BC) was pre-treated by pipetting on each spot 0.75 μL of saturated sinapinic acid in acetonitrile (ACN).
(§4) Sample preparation: At collection time point, 2 μL of reaction mixtures were pipetted out into 20 μL MALDI matrix solution (saturated solution of sinapinic acid in 1:1 ACN:water solution containing 0.75% trifluoroacetic acid (TFA)) deposited on 384 well polypropylene plate. Resulting solution was mixed by aspiration, centrifuged at 2000 g for 1 minute, then 1 μL aliquots were dispensed on pre-treated MALDI target using Beckman Coulter Biomek FX^P 96/384-Span-8 Laboratory Automation Workstation. Finally, the MALDI target was dried under mild vacuum to produce spots with fine crystalline structure.
(§5) Measurements: MALDI-TOF measurements were performed on a Bruker Daltonics rapifleX Tissuetyper TOF-TOF mass spectrometer using linear mode and mass range from 18.6 to 21.6 kDa. Detector gain was set to 3.3× (483 V), sample rate to 5 GS/s, real time smoothing to medium (175 MHz), laser smart beam pattern was set to: “MS Thin Layer M5”, and the laser frequency was 10000 Hz. Spectra were automatically collected using custom AutoXecute method. Laser power was auto adjusted using fuzzy control. The peak selection range was set to be between 19000 and 21500 Da. Peak evaluation uses half width parameter set to be smaller than 40 Da for processed spectrograms (centroid peak detection: smoothed by SavitzkyGolay algorithm using 7 m/z width and 2 cycles; baseline was subtracted using median algorithm with flatness 1 and median level 0.01). Fuzzy control used Proteins/Oligonucleotides protocol with minimum half width 1/10 times above threshold. Up to 40000 satisfactory shots were collected in 10000 shot steps. Dynamic termination was implemented to finish data collection when peak signal/noise ratio reached a value of 50.
(§6) Spectra processing: Spectra were smoothed by SavitzkyGolay algorithm using 7 m/z width and three cycles. Centroid peak detection algorithm was used with signal to noise threshold set to 6, relative intensity threshold 4%, peak width 10 m/z and median baseline subtraction using flatness of 1 and median level of 0.01. Peak intensity and area under the peak were evaluated and recorded for all peaks between 19,300 Da and 21,550 Da.
(§7) Calculation of percent modification: Percent modification was calculated as a ratio of peak height for protein modified by compound to sum of peak height of remaining protein plus peak height for protein modified by compound. If multiple modifications were observed each was calculated as a ratio of peak height for given modification versus sum of peak heights for all observed protein species. Data reported in Table 5 are from the 15 minutes reaction time point.

[2] = biological target: T2, Avi-KRAS G12C (1-169) GppNHp/RAF1 RBD-3×FLAG (52-151) (Homo sapiens, UniProt P01116, G12C); assay: KRAS G12C-effector (RAF1 RBD) protein:protein interaction HTRF disruption assay; assay type: biochemical; details: PPI HTRF
T2 construct: Avi-KRAS G12C (1-169) GppNHp
Description: A protein:protein interaction (PPI) Homogeneous Time Resolved Fluorescence (HTRF) assay was used to determine the effectiveness of compounds of the present disclosure in disrupting KRAS G12C protein and effector (RAF1) binding.
The HTRF assay used the following reagents and proteins: 50 nM Avi-KRAS G12C (1-169) GppNHp/RAF1 RBD-3×FLAG (52-151); 75 nM Avi-RAF1 RBD-3×FLAG; Assay Buffer: 50 mM Tris pH 7.5, 100 mM NaCl, 5 mM MgCl2, 0.1% BSA, 0.01% Tween 20, 10% DMSO; Bead Buffer: 50 mM Tris pH 7.5, 0.01% Tween 20; Assay volume: 20 μL (384 well plate-low volume format); and Compound titration: 30-0.02 μM, 3× dilution series.
The HTRF assay employed the following protocol:
Compounds were dispensed in assay plate (384-well, Grenier Bione #784075) using Echo (model 555) with dose response settings: 200 nL final volume, titration from 100 μM as a 10-point dilution series. KRAS proteins were prepared in assay buffer, and dispensed on plates, 5 μL per well, then incubated for 1 h at room temperature, with 700 rpm shaking. RAF1 RBD were prepared in assay buffer, dispensed onto plates, 5 μL per well, and then incubated for 1 h at room temperature, with 700 rpm shaking. Reagent mix was then prepared and dispensed on plates, 10 μL per well, and then incubated for 1 h at room temperature, with 700 rpm shaking.
Plates were analyzed on an Envision plate reader using the following setting: Excitation 320 nm, Bandwidth 75 nm, Emission 615 nm, Bandwidth 85 nm; Gain 100%; Flashes 100; Lag 60 μs. Data was reported as percentage of activity, with DMSO as 100%. Data was plotted and analyzed using Prism 8.

[3] = biological target: T3, GTP-loaded KRAS4b (amino acids 1-169) G12C/C118S (Homo sapiens, UniProt P01116, C118S/G12C); assay: MALDI-TOF MS covalent Cys12 modification, GTP-loaded KRAS G12C; assay type: binding; details: 15 minutes reaction time, 1 μM protein, 1:2.5 protein to compound ratio
T3 construct: KRAS4b (amino acids 1-169) G12C/C118S protein; made in house
Description: as §1, §2, §3, §4, §5, §6, §7

pERK in NCI-H358 cells = assay: Cell-based pERK HTRF assay; details: Homo sapiens, 0.5 h, 30 min incubation
Description: pERK HTRF assays (Perkin Elmer) were used to determine the effectiveness of compounds of the present disclosure in disrupting KRAS G12C protein/effector signaling in cells.
On Day 1, cells (NCI-H358) were seeded into 96-well plates at 4×10^4 cells/well in complete growth media (RPMI, 10% FBS).
On Day 2, cells were treated with compounds at 0.25% DMSO. The source plate was created with compounds diluted in media at 5-fold the final assay concentration. The compounds were run in a 9-point concentration curve starting at 75 μM, with a 3-fold dilution between concentrations. 20 μL was transferred onto the cell plates (final volume in wells was 100 μL). Plates were harvested after 30 min incubation by aspirating media and adding kit-supplied 1× supplemented lysis buffer to all wells (75 μL per well). Plates were then placed on a plate shaker and incubated at 850 rpm for an additional 30 min.
Antibody mixture solution was prepared by diluting aliquoted d2 and Eu Cryptate antibodies 1:20 in kit supplied detection buffer, then mixed the diluted antibodies solutions (1:1 v:v). 4 μL of this solution was then added to a 384-well detection plate (Perkin Elmer; 6008230).
Samples were homogenized by pipetting up and down and then transferred (16 μL of cell lysates) from the 96-well cell culture plate to two wells of the HTRF 384-well detection plate containing the antibody solution. Plates were centrifuged (524 g for 1 min) and allowed to incubate between 4 and 24 h at room temperature. Maximum signal is reached after 4 h incubation time and remains stable over a period of 24 hours. Therefore, readings can be made between 4 and 24 h of incubation. Plates were centrifuged again (524 g for 1 min) and analyzed on the EnVision plate reader using the following settings: Excitation 320 nm, Bandwidth 75 nm; Emission 615 nm, Bandwidth 85 nm; Gain 100%; Flashes 100; Lag 60 μs.

[4] = biological target: T4, GDP-loaded KRAS4b (amino acids 1-169) G12C/C118S (Homo sapiens, UniProt P01116, C118S/G12C); assay: MALDI-TOF MS covalent Cys12 modification, GDP-loaded KRAS G12C; assay type: binding; details: 15 minutes reaction time, 1 μM protein, 1:2.5 protein to compound ratio
T4 construct: KRAS4b (amino acids 1-169) G12C/C118S protein; made in house
Description: as §1, §2, §3, §4, §5, §6, §7

Structure (SMILES)	GppNHp-KRAS G12C percent of modification [1]	IC50 [2] [nM]	GTP-KRAS G12C percent of modification [3]	IC50 (pERK in NCI-H358 cells) [nM]	GDP-KRAS G12C percent of modification [4]
C=CC(=O)N1C[C@@H](F)[C@@H](N(C)c2nc(OC[C@@]34CCCN3C[C@H](F)C4)nc3c(F)c(-c4ccc(F)c5sc(N)c(C#N)c45)ncc23)C1 [Compound 11]	A (percent of modification ≥70%)	≤ 500	A (percent of modification ≥70%)	≤ 100	A (percent of modification ≥70%)
C=CC(=O)N1C[C@H](F)[C@@H](N(C)c2nc(OC[C@@]34CCCN3C[C@H](F)C4)nc3c(F)c(-c4ccc(F)c5sc(N)c(C#N)c45)ncc23)C1 [Compound 12]	A (percent of modification ≥70%)	≤ 500	A (percent of modification ≥70%)	≤ 100	A (percent of modification ≥70%)
C=CC(=O)N1C[C@H](N(C)c2nc(OC[C@@]34CCCN3C[C@H](F)C4)nc3cc(-c4ccc(F)c5sc(N)c(C#N)c45)c(C(F)(F)F)nc23)C[C@H]1C [Compound 13]	C (10%≤percent of modification <50%)	≤ 500	C (10%≤percent of modification <50%)	≤ 100	C (10%≤percent of modification <50%)
C=CC(=O)N1CC[C@@H](N(C)c2nc(N3CC(N4CC5(CC5)C4)C3)nc3c(F)c(-c4ccc(F)c5sc(N)c(C#N)c45)ncc23)C1 [Compound 14, 2-amino-4-[2-[3-(5-azaspiro[2.3]hexan-5-yl)azetidin-1-yl]-8-fluoro-4-[methyl-[(3R)-1-prop-2-enoylpyrrolidin-3-yl]amino]pyrido[4,3-d]pyrimidin-7-yl]-7-fluoro-benzothiophene-3-carbonitrile]	C (10%≤percent of modification <50%)	≤ 500	C (10%≤percent of modification <50%)	100 to 1000	A (percent of modification ≥70%)
C=CC(=O)N1CC[C@@H](N(C)c2nc(OC[C@@]34CCCN3C[C@H](F)C4)nc3cc(-c4ccc(F)c5sc(N)c(C#N)c45)c(C(F)(F)F)nc23)[C@H]1C [Compound 15]	A (percent of modification ≥70%)	≤ 500	A (percent of modification ≥70%)	≤ 100	A (percent of modification ≥70%)
C=CC(=O)N1CC[C@@H](N(C)c2nc(OC[C@@]34CCCN3C[C@H](F)C4)nc3c(F)c(-c4ccc(F)c5sc(N)c(C#N)c45)ncc23)[C@H]1C [Compound 17, 4-(4-(((2R,3R)-1-acryloyl-2-methylpyrrolidin-3-yl)(methyl)amino)-8-fluoro-2-(((2R,7aS)-2-fluorotetrahydro-1H-pyrrolizin-7a(5H)-yl)methoxy)pyrido[4,3-d]pyrimidin-7-yl)-2-amino-7-fluorobenzo[b]thiophene-3-carbonitrile]	A (percent of modification ≥70%)	≤ 500	A (percent of modification ≥70%)	≤ 100	A (percent of modification ≥70%)
C=CC(=O)N1C[C@@H](F)[C@@H](N(CC)c2nc(OC[C@@]34CCCN3C[C@H](F)C4)nc3c(F)c(-c4ccc(F)c5sc(N)c(C#N)c45)ncc23)C1 [Compound 18]	A (percent of modification ≥70%)	≤ 500	A (percent of modification ≥70%)	≤ 100	A (percent of modification ≥70%)
C=CC(=O)N1CCC(N(CC)c2nc(OC[C@@]34CCCN3C[C@H](F)C4)nc3c(F)c(-c4ccc(F)c5sc(N)c(C#N)c45)ncc23)[C@H]1C (stereo partly drawn) [Compound 19]	A (percent of modification ≥70%)	≤ 500	A (percent of modification ≥70%)	≤ 100	A (percent of modification ≥70%)
C=CC(=O)N1CCC(N(C)c2nc(OC[C@@H]3C[C@@H](OC)CN3C)nc3c(F)c(-c4ccc(F)c5sc(N)c(C#N)c45)ncc23)[C@H]1COC (stereo partly drawn) [Compound 20]	A (percent of modification ≥70%)	≤ 500	A (percent of modification ≥70%)	100 to 1000	A (percent of modification ≥70%)
